Laboratory results reported in US9328369B2, “Process for production of useful substance, and surfactant for use in the process” (priority 2009, dated 2016).

Assays:
Assay type in all cases: cell-based
Escherichia coli (α) = assay: Screening of secretion efficiency, alkaline phosphatase expressing strain; conditions: surfactant 1 wt %; 37° C., 1 hour; ELISA, anti-His-tag antibody
Description: An alkaline phosphatase (phoA) gene of an Escherichia coli strain W3110 was amplified by the PCR method using primers 1 and 2 (Table 4). After being treated with restriction enzymes NdeI and BamHI, a PCR fragment was bound with an NdeI restriction enzyme site and with a BamHI restriction enzyme site of a pET-22b plasmid (product of Novagen). Then, the plasmid was transformed into an AG1 (DE3) Escherichia coli strain formed by transforming an Escherichia coli strain AG1 (product of TOYOBO Co., LTD.) with use of a λDE3 Lysogenization Kit (product of Novagen). In this manner, an alkaline phosphatase expressing strain (a) was formed.
(§1) A pdxA gene of an Escherichia coli strain W3110 was amplified by the PCR method using primers 5 and 6 (Table 4). After being treated with restriction enzymes NdeI and BamHI, a PCR fragment was bound to an NdeI restriction enzyme site and a BamHI restriction enzyme site of a pET-22b plasmid (product of Novagen). Then, the plasmid was transformed into an AG1 (DE3) Escherichia coli strain to form a PdxA expressing strain (γ).
In this manner, culture solutions were prepared.
(2) The strains were collected using a centrifuge (4,000 G, 4° C., 15 minutes). Each of the collected Escherichia coli strains was resuspended in 1 mL of a TB culture solution (product of Difco) and chloramphenicol (30 mg/L) and IPTG (100 μM) were added thereto. Shake culture at 37° C. for 3 hours induced expression of phoA, torA, and pdxA.
(3) Subsequently, harvesting using a centrifuge was carried out again (4,000 G, 4° C., 15 minutes). Each of the collected Escherichia coli strains was resuspended in 2.5 mL of a Tris-NaCl buffer solution (50 mM Tris (pH 7.5), 100 mM NaCl). The resulting solution was divided into 25-μL portions at a time to be mixed with 25 μL of a Tris-NaCl buffer solution.
(4) Then, the solution was allowed to stand at 37° C. for 1 hour. The supernatant solution was collected and diluted in a Tris-NaCl buffer solution to a proper concentration. Here, the quantification of the recombinant protein in the resulting solution was carried out by ELISA assay with use of an anti-His-tag antibody. The sample prior to the centrifugation in the process (3) was treated with ultrasonic waves (200 W, 10 minutes) and the quantification of the recombinant protein therein was similarly carried out by ELISA assay with use of an anti-His-tag antibody. The ratio of lysed bacteria was obtained with use of Escherichia coli (γ), and the secretion efficiencies of the recombinant proteins of Escherichia coli (α) and (β) were calculated by using the following formula. […] Secretion efficiency (%)=100×{(X/Y)−Z}.
In the formula, “X” represents the amount of the recombinant protein in the culture solution after removal of bacterial cells by centrifugation in the case of using Escherichia coli (α) or (β).
“Y” represents the amount of the whole recombinant protein in the culture solution in the case of using Escherichia coli (α) or (β).
“Z” represents the ratio of lysed bacteria obtained with use of Escherichia coli (γ), which is determined by the following formula: Z=Z1/Z2.
In the formula, “Z1” represents the amount of the recombinant protein in the culture solution which remains after removal of bacterial cells by centrifugation in the case of using Escherichia coli (γ).
“Z2” represents the amount of the whole recombinant protein in the culture solution in the case of using Escherichia coli (γ).
Escherichia coli (α) and (β) were each cultured in the same manner as in the above case except that polyoxyethylene (3 mol) tridecyl ether sodium acetate as the surfactant (A) was added right after the resuspension of the Escherichia coli in the buffer solution in the process (3) of A-0, in an amount of 1% by weight on the basis of the weight of the suspension of the bacterium. The secretion efficiency was calculated according to the above-mentioned definition.

Escherichia coli(δ) [1] = assay: Production by secretion in microbial culture system, cellulase expressing strain (Table 5); conditions: Examples 2-11; surfactant 1 wt %; supernatant of culture solution, SDS-PAGE
Escherichia coli(δ) [2] = assay: as above; parameters: key to Turbidity: (measured turbidity of diluted culture − blank) × dilution rate; conditions: Examples 2-11, surfactant 1 wt %; for Dried cell density: at termination of culturing, obtained from turbidity; for Turbidity: culturing terminated after 48 hours
Procedure: A bglC gene of Bacillus licheniformis was amplified by the PCR method using primers 9 and 10 (Table 4). After being treated with restriction enzymes NcoI and BamHI, a PCR amplified fragment was bound to an NcoI restriction enzyme site and a BamHI restriction enzyme site of a pET-22b plasmid (product of Novagen). Then, the plasmid was transformed into a BL21 (DE3) Escherichia coli strain (product of Novagen) to form Escherichia coli […] that expresses cellulase.
Overnight cultures (1 ml) of Escherichia coli (δ) obtained in Production Example 4 and Escherichia coli (ε) obtained in Production Example 5 were respectively prepared as Comparative Example 2 and Comparative Example 4. An amount of 0.5 ml of each was inoculated in 5 ml of an LB culture solution (containing 100 mg/L of ampicillin) and was shake-cultured at 30° C. for 3 hours. In this manner, pre-culture solutions were prepared. The pre-culture solutions were each inoculated in 50 mL of a culture solution (1.2 g of yeast extract (Nihon Pharmaceutical Co., Ltd.), 0.6 g of polypeptone (Nihon Pharmaceutical Co., Ltd.), 0.47 g of dipotassium phosphate, 0.11 g of monopotassium phosphate, 0.35 g of ammonium sulfate, 0.66 g of disodium phosphate 12-hydrate, 0.02 g of sodium citrate dihydrate, 0.2 g of glycerol, 1.5 g of lactalbumin hydrolysate, 0.3 g of a defoaming agent (Shin-Etsu Chemical Co., Ltd., “KM-70”), 1 mM magnesium sulfate, trace metal solution (18.9 μg of calcium chloride, 500 μg of iron chloride (III), 9.0 μg of zinc sulfate heptahydrate, 5.1 μg of copper sulfate, 6.7 μg of manganese chloride tetrahydrate, 4.9 μg of cobalt chloride, 200 μg of ethylene-diamine-tetraacetic acid tetrasodium salt), 100 mg/L ampicillin). Culturing was initiated with use of a microbial culture system (ABLE Corporation, product name “BioJr. 8”), while the pH value and the temperature were maintained at 6.8 and 30° C. After the culturing was initiated, 0.15 mL of 1M IPTG was added. After 14 hours from the initiation of culturing, instillation of a glycerin/protein solution (50% of glycerin, 50 g/L of lactalbumin hydrolysate, a 33 g/L defoaming agent (Shin-Etsu Chemical Co., Ltd., “KM-70”), 100 mg/L ampicillin) was started. The culturing was terminated after 48 hours from the initiation and the culture solution was recovered. The whole protein in the culture solution was analyzed by SDS-PAGE. Based on the obtained amount of the protein band, the recombinant protein was quantified.
The dried cell density at the termination of the culturing was determined by the following processes (1) to (5):
The dried cell density was determined by applying the measuring results in the process (5) and the process (1) and the volume (L) of the culture solution used in the process (2) to the following formula: Dried cell density (g/L)=([measuring result in process (5)]−[measuring result in process (1)])/0.1.
Performance of this processes for several times clarified the proportional relationship between the turbidity of the culture solution and the dried cell density. Therefore, the dried cell density was obtained from the measured turbidity in each of Comparative Examples 2 to 4 and Examples 2 to 14.
The turbidity of a culture solution that is same as the culture solution used in the measurement of the dried cell density was measured using a turbidimeter (Shimadzu Corporation, UV-1700) and 1 ml of quarts cell.
For measurement, the culture solution was diluted in saline to have an appropriate absorbance. The absorbance of the same culture solution (but not containing bacteria) diluted at the same dilution as above was set as a blank. The turbidity of the culture solution was calculated by using the following formula: Turbidity of culture solution=[(measured turbidity of diluted culture solution)−(measured turbidity of blank)]×dilution rate.
The dried cell density and the turbidity of the culture solution were plotted to construct a graph in FIG. 3. […]

Escherichia coli (β) = assay: Screening of secretion efficiency, TorA expressing strain; conditions: surfactant 1 wt %; 37° C., 1 hour; ELISA, anti-His-tag antibody
Description: as §1, with “torA” for “pdxA”, “3” for “5”, “4” for “6”, “TorA” for “PdxA”, “(β). Localization of the expressed TorA in a periplasmic fraction was confirmed by conducting an analysis based on the method disclosed in page 121 of Vol. 353 of METHODS IN ENZYMOLOGY (2002).” for “(γ).”
as §1, with “(γ). Localization of the expressed PdxA in a cytoplasmic compartment was confirmed by conducting an analysis based on the method disclosed in page 121 of Vol. 353 of METHODS IN ENZYMOLOGY (2002). […]” for “(γ).”
(4) Then, the solution was allowed to stand at 37° C. for 1 hour. […] Here, the quantification of the recombinant protein in the resulting solution was carried out by ELISA assay with use of an anti-His-tag antibody. The sample prior to the centrifugation in the process (3) was treated with ultrasonic waves (200 W, 10 minutes) and the quantification of the recombinant protein therein was similarly carried out by ELISA assay with use of an anti-His-tag antibody. The ratio of lysed bacteria was obtained with use of Escherichia coli (γ), and the secretion efficiencies of the recombinant proteins of Escherichia coli (α) and (β) were calculated by using the following formula. […]
“Z” represents the ratio of lysed bacteria obtained with use of Escherichia coli (γ), which is determined by the following formula: Z=Z1/Z2. […]

Compound	Secretion efficiency (%) Escherichia coli (α) (Escherichia coli (α)) [%]	Quantitative value of produced recombinant protein (Escherichia coli(δ) [1]) [g/L]	Dried cell density (Escherichia coli(δ) [2]) [g/L]	Turbidity (Escherichia coli(δ) [2])	Secretion efficiency (%) Escherichia coli (β) (Escherichia coli (β)) [%]
CCCCCCCCCCCC[N+](C)(C)CC(=O)[O-] [A-5, Lauryl dimethylamino acetate betaine]	87.8	2.58	23.8	85	–
CCCCCCCCCCCC(=O)NCCN(CCO)CC(=O)O.[Na] [A-13, Sodium N-lauroyl-N′-carboxymethyl-N′-hydroxyethyl ethylenediamine]	46.6	1.79	21.4	76.4	–
Palm oil fatty acid amide propyl dimethyl amino acetate betaine [A-3]	91.3	–	–	–	93.6
Sodiumt polyoxyethylene (3 mol) laurylether acetate [A-9]	63.3	1.35	14.2	50.7	–
